Laboratory results from patent publication US10112940B2, “Histone demethylase inhibitors” (Celgene Quanticel Research, Inc., priority 2014, dated 2018).

Columns and labels:
[1] = tested on: KYSE-150 esophageal carcinoma cell line; assay: In vitro cell-based assay: BrdU incorporation cell proliferation ELISA; design: species or system human; details: Homo sapiens, KYSE-150 cells, 168 hours compound incubation, read-out: Cellular IC50
Procedure: Cell lines tested include the JMJD2C gene amplified cell line KYSE-150. This is a quantitative ELISA assay measuring DNA incorporation of BrdU during S-phase as a direct readout of cellular proliferation.
Assay Principle: This is a colorimetric immunoassay for the quantification of cell proliferation. Cells treated for 168 hours with test compounds are assayed for their ability to go through S-phase as a measure of their proliferative potential.
Assay Method: The human KYSE-150 (SMAD4 mut, TP53 mut) esophageal carcinoma cell line was seeded at 2,000 cells/well on a 96-well tissue culture treated plate. After an overnight incubation, cells were treated with compound in an 11-point dilution series with final concentrations ranging from 100 μM to 2 nM. Cells were then incubated in the presence of compound for 168 hours. After compound incubation the cells were assayed using a BrdU Cell Proliferation ELISA (Roche). The cells were first incubated with BrdU labeling reagent for 2 hours. After 2 hours, the BrdU incorporated cells were fixed and denatured, probed with an anti-BrdU-Peroxidase antibody for 1.5 hours and washed. Finally, a tetramethylbenzidine peroxidase substrate was added to each well for 15 minutes followed by a H2SO4 stop solution. The plate was read at 450 nm, and the raw optical density data was transferred into XLFit (IDBS) for IC50 calculation using the formula: fit=(D+((Vmax*(x^n))/((x^n)+(Km^n))))
Table 4 provides the cellular IC50 values of various compounds disclosed herein.

JMJD2C = JMJD2C (Homo sapiens (Human), UniProt Q9H3R0); assay: JMJD2C in vitro enzyme inhibition assay (TR-FRET); assay type: biochemical; details: 0.3 nM JMJD2C, 300 nM H3K9me3-biotin peptide, 2 μM alpha-ketoglutaric acid, 30 minutes
Chain of JMJD2C (Q9H3R0 2-372): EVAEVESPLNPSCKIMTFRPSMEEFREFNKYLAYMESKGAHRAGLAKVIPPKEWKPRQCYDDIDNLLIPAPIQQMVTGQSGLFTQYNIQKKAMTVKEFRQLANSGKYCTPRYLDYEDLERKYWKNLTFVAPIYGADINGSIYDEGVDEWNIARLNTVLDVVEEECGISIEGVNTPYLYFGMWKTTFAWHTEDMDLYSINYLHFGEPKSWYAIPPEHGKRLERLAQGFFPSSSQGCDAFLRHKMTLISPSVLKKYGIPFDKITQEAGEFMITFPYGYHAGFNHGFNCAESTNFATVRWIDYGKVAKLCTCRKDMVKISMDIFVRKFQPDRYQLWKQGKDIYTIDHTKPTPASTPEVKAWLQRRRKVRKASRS
Procedure: This assay determines the ability of a test compound to inhibit JMJD2C demethylase activity. Baculovirus expressed JMJD2C (GenBank Accession #BC143571, AA 2-372) was purchased from BPS Bioscience (Cat#50105).
The ability of test compounds to inhibit the activity of JMJD2C was determined in 384-well plate format under the following reaction conditions: 0.3 nM JMJD2C, 300 nM H3K9me3-biotin labeled peptide (Anaspec cat #64360), 2 μM alpha-ketoglutaric acid in assay buffer of 50 mM HEPES, pH7.3, 0.005% Brij35, 0.5 mM TCEP, 0.2 mg/ml BSA, 50 μM sodium L-ascorbate, and 2 μM ammonium iron(II) sulfate. Reaction product was determined quantitatively by TR-FRET after the addition of detection reagent Phycolink Streptavidin-allophycocyanin (Prozyme) and Europium-anti-di-methylated histone H3 lysine 9 (H3K9me2) antibody (PerkinElmer) in the presence of 5 mM EDTA in LANCE detection buffer (PerkinElmer) at a final concentration of 50 nM and 1 nM, respectively.
The assay reaction was initiated by the following: 2 μl of the mixture of 900 nM H3K9me3-biotin labeled peptide and 6 μM alpha-ketoglutaric acid with 2 μl of 11-point serial diluted inhibitor in 3% DMSO were added to each well of the plate, followed by the addition of 2 μl of 0.9 nM JMJD2C to initiate the reaction. The reaction mixture was incubated at room temperature for 30 minutes, and terminated by the addition of 6 μl of 5 mM EDTA in LANCE detection buffer containing 100 nM Phycolink Streptavidin-allophycocyanin and 2 nM Europium-anti-H3K9me2 antibody. Plates were read by EnVisionMultilabel Reader in TR-FRET mode (excitation at 320 nm, emission at 615 nm and 665 nm) after 1 hour incubation at room temperature. A ratio was calculated (665/615) for each well and fitted to determine inhibition constant (IC50).
The ability of the compounds disclosed herein to inhibit demethylase activity was quantified and the respective IC50 value was determined. Table 3 provides the IC50 values of various compounds disclosed herein.

Row | IC50 [1] | IC50 (JMJD2C) | SMILES
1 | 1 to 10 µM | 0.1 to 1 µM | CN(c1ccc(Oc2nc(O)c3ccncc3n2)cc1)c1ccccn1 [Example 1, 2-[4-(Methyl-pyridin-2-yl-amino)-phenoxy]-pyrido[3,4-d]pyrimidin-4-ol]
2 | ≤ 0.1 µM | 0.1 to 1 µM | Cn1ccc2cc(Oc3nc(O)c4ccncc4n3)ccc21 [Example 2, 2-(1-Methyl-1H-indol-5-yloxy)-pyrido[3,4-d]pyrimidin-4-ol]
3 | 0.1 to 1 µM | 0.1 to 1 µM | Oc1nc(Oc2ccc3c(ccn3CCc3ccccc3)c2)nc2cnccc12 [Example 3, 2-(1-Phenethyl-1H-indol-5-yloxy)-pyrido[3,4-d]pyrimidin-4-ol]
4 | 0.1 to 1 µM | 0.1 to 1 µM | Oc1nc(Oc2ccc3c(ccn3Cc3ccccc3)c2)nc2cnccc12 [Example 4, 2-(1-Benzyl-1H-indol-5-yloxy)-pyrido[3,4-d]pyrimidin-4-ol]
5 | 0.1 to 1 µM | 0.1 to 1 µM | CN(c1ccccc1)c1ccc(Oc2nc(O)c3ccncc3n2)cc1 [Example 5, 2-[4-(Methyl-phenyl-amino)-phenoxy]-pyrido[3,4-d]pyrimidin-4-ol]
6 | ≤ 0.1 µM | 0.1 to 1 µM | CN(Cc1ccccc1)c1ccc(Oc2nc(O)c3ccncc3n2)cc1 [Example 6, 2-[4-(Benzyl-methyl-amino)-phenoxy]-pyrido[3,4-d]pyrimidin-4-ol]
7 | 1 to 10 µM | 1 to 10 µM | CN(c1ccccc1)c1cccc(Oc2nc(O)c3ccncc3n2)c1 [Example 7, 2-[3-(Methyl-phenyl-amino)-phenoxy]-pyrido[3,4-d]pyrimidin-4-ol]
8 | – | 1 to 10 µM | Oc1nc(Oc2ccc3ccn(Cc4ccccc4)c3c2)nc2cnccc12 [Example 8, 2-(1-Benzyl-1H-indol-6-yloxy)-pyrido[3,4-d]pyrimidin-4-ol]
9 | – | 1 to 10 µM | CN(Cc1ccccc1)c1cccc(Oc2nc(O)c3ccncc3n2)c1 [Example 9, 2-[3-(Benzyl-methyl-amino)-phenoxy]-pyrido[3,4-d]pyrimidin-4-ol]
10 | – | 0.1 to 1 µM | CN(c1ccccc1)c1ccc(Oc2nc(O)c3ccncc3n2)cc1F [Example 10, 2-[3-Fluoro-4-(methyl-phenyl-amino)-phenoxy]-pyrido[3,4-d]pyrimidin-4-ol]
11 | – | 0.1 to 1 µM | Oc1nc(Oc2ccc3cnn(Cc4ccccc4)c3c2)nc2cnccc12 [Example 11, 2-(1-Benzyl-1H-indazol-6-yloxy)-pyrido[3,4-d]pyrimidin-4-ol]
12 | 1 to 10 µM | 0.1 to 1 µM | Oc1nc(Oc2ccc3cn(Cc4ccccc4)nc3c2)nc2cnccc12 [Example 12, 2-(2-Benzyl-2H-indazol-6-yloxy)-pyrido[3,4-d]pyrimidin-4-ol]
13 | 1 to 10 µM | 0.1 to 1 µM | CN(CCc1ccccc1)c1ccc(Oc2nc(O)c3ccncc3n2)cc1 [Example 13, 2-{4-[Methyl(2-phenylethyl)amino]phenoxy}pyridino[3,4-d]pyrimidin-4-ol]
14 | – | 0.1 to 1 µM | Oc1nc(Oc2ccc3nn(Cc4ccccc4)cc3c2)nc2cnccc12 [Example 14, 2-[2-Benzyl-2H-indazol-5-yloxy]pyridino[3,4-d]pyrimidin-4-ol]
15 | 1 to 10 µM | 0.1 to 1 µM | Oc1nc(Oc2ccc3c(cnn3Cc3ccccc3)c2)nc2cnccc12 [Example 15, 2-(1-Benzyl-1H-indazol-5-yloxy)-pyridino[3,4-d]pyrimidin-4-ol]
16 | – | 0.1 to 1 µM | COc1ccc(N(C)c2ccc(Oc3nc(O)c4ccncc4n3)cc2)cc1 [Example 16, 2-{4-[(4-Methoxy-phenyl)-methyl-amino]-phenoxy}-pyrido[3,4-d]pyrimidin-4-ol]
17 | – | 0.1 to 1 µM | COc1cccc(N(C)c2ccc(Oc3nc(O)c4ccncc4n3)cc2)c1 [Example 17, 2-{4-[(3-Methoxy-phenyl)-methyl-amino]-phenoxy}-pyrido[3,4-d]pyrimidin-4-ol]

Row | IC50 [1] | IC50 (JMJD2C) | SMILES
18 | – | 0.1 to 1 µM | CN(c1ccc(Oc2nc(O)c3ccncc3n2)cc1)c1ccc(N2CCOCC2)cc1 [Example 18, 2-{4-[Methyl-(4-morpholin-4-yl-phenyl)-amino]-phenoxy}-pyrido[3,4-d]pyrimidin-4-ol]
19 | 0.1 to 1 µM | 0.1 to 1 µM | CN(c1ccc(Oc2nc(O)c3ccncc3n2)cc1)c1cccc(N2CCOCC2)c1 [Example 19, 2-{4-[Methyl-(3-morpholin-4-yl-phenyl)-amino]-phenoxy}-pyrido[3,4-d]pyrimidin-4-ol]
20 | – | 0.1 to 1 µM | Cc1ccc(N(C)c2ccc(Oc3nc(O)c4ccncc4n3)cc2)cc1 [Example 20, 2-[4-(Methyl-p-tolyl-amino)-phenoxy]-pyrido[3,4-d]pyrimidin-4-ol]
21 | – | 0.1 to 1 µM | Cc1cccc(N(C)c2ccc(Oc3nc(O)c4ccncc4n3)cc2)c1 [Example 21, 2-[4-(Methyl-m-tolyl-amino)-phenoxy]-pyrido[3,4-d]pyrimidin-4-ol]
22 | 1 to 10 µM | 0.1 to 1 µM | CN(c1ccc(Oc2nc(O)c3ccncc3n2)cc1)c1ccc(N2CCC(N)CC2)cc1 [Example 23, 2-(4-{[4-(4-amino-piperidin-1-yl)-phenyl]-methyl-amino}-phenoxy)-pyrido[3,4-d]pyrimidin-4-ol]
23 | > 10 µM | 0.1 to 1 µM | CN(C(=O)Cc1ccccc1)c1ccc(Oc2nc(O)c3ccncc3n2)cc1 [Example 24, N-[4-(4-hydroxy-pyrido[3,4-d]pyrimidin-2-yloxy)-phenyl]-N-methyl-2-phenyl-acetamide]
24 | – | 0.1 to 1 µM | Oc1nc(Oc2ccc(N3CCCC(c4ccccc4)C3)cc2)nc2cnccc12 (stereo not shown) [Example 25, 2-[4-(3-phenyl-piperidin-1-yl)-phenoxy]-pyrido[3,4-d]pyrimidin-4-ol]
25 | – | ≤ 0.1 µM | CN(CC1CCCc2ccccc21)c1ccc(Oc2nc(O)c3ccncc3n2)cc1 (stereo not shown) [Example 28, 2-{4-[methyl-(1,2,3,4-tetrahydro-naphthalen-1-ylmethyl)-amino]-phenoxy}-pyrido[3,4-d]pyrimidin-4-ol]
26 | – | 1 to 10 µM | Oc1nc(Oc2ccc3c(ccn3C3CCCC3)c2)nc2cnccc12 [Example 31, 2-(1-cyclopentyl-1H-indol-5-yloxy)-pyrido[3,4-d]pyrimidin-4-ol]
27 | – | 1 to 10 µM | Oc1nc(Oc2ccc3c(c2)CCCN3c2ccccc2)nc2cnccc12 [Example 33, 2-(1-phenyl-1,2,3,4-tetrahydro-quinolin-6-yloxy)-pyrido[3,4-d]pyrimidin-4-ol]
28 | – | ≤ 0.1 µM | CC(C)c1ccc(N(C)c2ccc(Oc3nc(O)c4ccncc4n3)cc2)nc1 [Example 34, 2-{4-[(5-isopropyl-pyridin-2-yl)-methyl-amino]-phenoxy}-pyrido[3,4-d]pyrimidin-4-ol]
29 | – | 0.1 to 1 µM | CC(C)c1ccc(N(C)c2ccc(Oc3nc(O)c4ccncc4n3)cc2)cc1N1CCOCC1 [Example 35, 2-{4-[(4-isopropyl-3-morpholin-4-yl-phenyl)-methyl-amino]-phenoxy}-pyrido[3,4-d]pyrimidin-4-ol]
30 | – | 0.1 to 1 µM | CC(C)Cc1ccc(N(C)c2ccc(Oc3nc(O)c4ccncc4n3)cc2)cc1 [Example 63, 2-[4-[N-methyl-4-(2-methylpropyl)anilino]phenoxy]pyrido[3,4-d]pyrimidin-4-ol]
31 | – | 0.1 to 1 µM | CC(C)c1cccc(N(C)c2ccc(Oc3nc(O)c4ccncc4n3)cc2)c1 [Example 93, 2-[4-(N-methyl-3-propan-2-ylanilino)phenoxy]pyrido[3,4-d]pyrimidin-4-ol]
32 | – | 0.1 to 1 µM | CC(C)c1ccc(N(CC(F)(F)F)c2ccc(Oc3nc(O)c4ccncc4n3)cc2)cc1 [Example 114, 2-{4-[(4-isopropyl-phenyl)-(2,2,2-trifluoro-ethyl)-amino]-phenoxy}-pyrido[3,4-d]pyrimidin-4-ol]
33 | – | 0.1 to 1 µM | CC(C)c1ccc(N(c2ccc(Oc3nc(O)c4ccncc4n3)cc2)C2CCOCC2)cc1 [Example 118, 2-(4-((4-isopropylphenyl)(tetrahydro-2H-pyran-4-yl)amino)phenoxy)pyrido[3,4-d]pyrimidin-4-ol]
